Reference: patent US11142505B2, “Compositions for APP-selective BACE inhibition and uses therefor” (The Regents of the University of California, priority 2015, dated 2021)
Values joined by “and” are separate entries in the source; they are usually repeats but may differ in a detail not shown here. Identical values can stand only once. Counter-ions that a name gives are not always drawn. Like-named read-outs stand apart in the source and are kept apart here.

Columns and labels:
[1] = system: CHO-7W cells that were stably transfected with human APP (wildtype); assay: Secondary cell-based test of APP processing (sAPPalpha, sAPPbeta, Abeta 1-42); details: for sAPP (α/β) / sAPPα/Aβ / sAPPalpha / Abeta 1-42 / sAPPbeta: Secondary (1st test, n = 3); for sAPP (α/β) / sAPPα/Aβ: ratio; for Abeta 1-42 / sAPPbeta: ↓ decrease; for Aβ1-42 peptide formation, in words: FIG. 1C, FIG. 5B
Excerpt: Cellular Assays: Numerous cell-based assays can be used to evaluate the activity of agent(s) of interest on relative alpha-secretase activity to beta-secretase activity and/or processing of APP to release amyloidogenic versus non-amyloidogenic oligomers.
Relative activity of the alpha-secretase to the beta-secretase can be measured by analysis of one or more cleavage products of the APP substrate. For example, inhibition of beta-secretase activity against the substrate APP would be expected to decrease release of specific beta-secretase induced APP cleavage products such as Aβ (e.g., Aβ40 or Aβ42), sAPPβ and APPneo. Promotion or enhancement of alpha-secretase activity against the substrate APP would be expected to increase release of specific alpha-secretase induced APP cleavage products such as sAPPα and p3 peptide.
In such assays, for example, the cells expressing APP, alpha-secretase and/or beta-secretase are incubated in a culture medium under conditions suitable for alpha-secretase and/or beta-secretase enzymatic activity at its cleavage site on the APP substrate. On exposure of the cells to the agent(s), the amount of Aβ released into the medium and/or the amount of CTF99 fragments of APP in the cell lysates is reduced as compared with the control. The cleavage products of APP can be analyzed, for example, by immune reactions with specific antibodies, as discussed above.

[2] = solubility (Sol); format: physicochemical; details: Table 3
[3] = pharmacokinetics, plasma and brain levels; format: in vivo
Excerpt: As is readily apparent, not all compounds were equally able to cross the blood brain barrier, but most compounds did reach pharmacologically meaningful levels given their low IC50 values. FIG. 5A provides a further exemplary compound (FAH65) and FIG. 5B depicts dose response data for Aβ1-42 production in a cell based system.. Further shown are effects observed with regard to Aβ1-42 production, sAPPβ and sAPPα formation. […] Here, data are presented for oral and subcutaneous administration (SQ) at dosages of 10- and 30 mg/kg. […] Once more, it should be noted that these exemplary compounds are preferential towards APP in BACE inhibition as can be taken from the data for Aβ1-42, sAPPβ, and sAPPα formation.

[4] = target: BACE1 (Homo sapiens (Human), UniProt P56817); assay: in vitro BACE inhibition assay (Primary BACE1 IC50); format: biochemical; details: for BACE activity / IC50 in the BACE assay, in words: FIG. 1B, FIG. 2B
Excerpt: ABBI Assay: APP Binding BACE Inhibitor (ABBI) activity of any of the compounds described herein can readily be verified using, for example, assays described herein. […] In one illustrative embodiment, an MBP-C125 APP695 wt fusion protein can be used as one of the substrates and the second substrate can be the commercially available P5-P5′ fluorescence substrate.

[5] = one cell spans the readout columns
[6] = Table 4, several values in a cell are repeat determinations, read-out: BACE1 IC50

Sequence of BACE1 (P56817 46-501): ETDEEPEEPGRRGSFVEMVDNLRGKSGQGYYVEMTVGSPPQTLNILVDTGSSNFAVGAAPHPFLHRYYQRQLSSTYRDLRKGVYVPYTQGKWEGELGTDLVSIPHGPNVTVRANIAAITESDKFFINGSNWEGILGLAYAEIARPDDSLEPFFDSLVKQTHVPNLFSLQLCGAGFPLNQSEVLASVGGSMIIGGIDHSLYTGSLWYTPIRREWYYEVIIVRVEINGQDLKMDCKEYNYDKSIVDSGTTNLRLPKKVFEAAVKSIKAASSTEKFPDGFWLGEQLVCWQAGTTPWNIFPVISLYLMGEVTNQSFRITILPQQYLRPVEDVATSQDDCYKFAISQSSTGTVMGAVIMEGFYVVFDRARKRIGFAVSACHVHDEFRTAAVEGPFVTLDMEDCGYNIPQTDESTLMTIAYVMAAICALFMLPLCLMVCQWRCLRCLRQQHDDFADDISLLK

SMILES | sAPP (α/β) ([1]; ↑ increase) | sAPPalpha ([1]; ↑ increase) | Abeta 1-42 [1] | sAPPbeta [1] | sAPPα/Aβ ([1]; ↑ increase) | further results
Cc1cc(C2(c3ccnc(F)c3)N=C(N)N(C)C2=O)ccc1OC(F)F (stereo not drawn) [FAH-46] | ↑≈10% | ↑>10% | ↓>20% | ↓<10% |  | sAPPα/Aβ ([1]; ↓ (decrease)): ↓>40%; Sol [2]: Good; Cmax brain [3]: ~0.3 µM
Cc1cc(C2(c3cocn3)N=C(N)N(C)C2=O)ccc1OC(F)F (stereo not drawn) [FAH-38] |  |  |  |  |  | Secondary (1st test) result across all readouts [1, 5]: unchanged
Cc1cc(C2(c3cccc(-c4cccnc4)c3)N=C(N)N(C)C2=O)ccc1OC(F)F (stereo not drawn) [FAH-32] | ↑>100% | ↑>20% | ↓>60% | ↓>30% | ↑>100% | BACE activity / IC50 in the BACE assay, in words [4]: significantly reduced IC50; Aβ1-42 peptide formation, in words [1]: substantially reduced; sAPPα formation, in words ([1]; FIG. 1D, compared to FAH17): increased sAPPα formation as compared to FAH17; sAPPβ formation, in words ([1]; FIG. 1D, compared to FAH17): reduced as compared to FAH17; Sol [2]: Med; Cmax brain [3]: <0.02 µM
Cc1cc(C2(c3cc(F)cc(F)c3)N=C(N)N(C)C2=O)ccc1OC(F)F (stereo not drawn) [FAH-03] | ↑≈50% | ↑>10% | ↓>20% | ↓>20% | ↑>50% | 
Cc1cc(C2(c3cnn(C)c3)N=C(N)N(C)C2=O)ccc1OC(F)F (stereo not drawn) [30 HCl] | ↑≈40% | ↑>10% |  | ↓>20% |  | 
Cc1cc(C2(c3cncnc3)N=C(N)N(C)C2=O)ccc1OC(F)F (stereo not drawn) [FAH-33] | ↑≈10% | ↑>10% | ↓≈10% | Unchanged | ↑>20% | 
COCc1cc(C2(c3ccc(OC(F)F)c(C)c3)N=C(N)N(C)C2=O)ccn1 (stereo not drawn) [FAH-53] | ↑≈50% | ↑>10% | ↓<10% | ↓<10% |  | sAPPα/Aβ ([1]; ↓ (decrease)): ↓≈20%
COCc1cccc(C2(c3ccc(OC(F)F)c(C)c3)N=C(N)N(C)C2=O)c1 (stereo not drawn) [FAH-44] | ↑>100% | ↑>10% | ↓>30% | ↓>30% |  | IC50 ([4]; Table 3, read-out: IC50): ~0.25 µM; sAPPα/Aβ ([1]; ↓ (decrease)): ↓>100%; Sol [2]: Excellent; Cmax brain [3]: ~0.2 µM
COc1cc(C2(c3ccc(OC(F)F)c(C)c3)N=C(N)N(C)C2=O)ccn1 (stereo not drawn) [FAH-48] | ↑≈50% | ↑>10% | ↓≈10% | ↓>20% |  | sAPPα/Aβ ([1]; ↓ (decrease)): ↓>20%
Cc1cc(C2(C3CCCCC3)N=C(N)N(C)C2=O)ccc1OC(F)F (stereo not drawn) [FAH-59] |  |  |  |  |  | Secondary (1st test) toxicity [1, 5]: Toxic
Cc1cc(C2(c3cccc(C(F)(F)F)c3)N=C(N)N(C)C2=O)ccc1OC(F)F (stereo not drawn) [FAH-28] | ↑>50% | ↑>20% | ↓>20% | ↓>20% | ↑>40% | 
Cc1cc(C2(c3cncc(F)c3)N=C(N)N(C)C2=O)ccc1OC(F)F (stereo not drawn) [FAH-37] | ↑>50% | ↑>10% | ↓≈20% | ↓>20% |  | BACE activity / IC50 in the BACE assay, in words [4]: less effective in reducing BACE activity in vitro; IC50 [4, 6]: 1.93 µM and 2.8 µM and 4.7 µM; IC50 ([4]; Tables 1 and 2, read-out: Primary BACE1 IC50): 0.15 µM; sAPPα/Aβ ([1]; ↓ (decrease)): ↓>40%; Sol [2]: Good; Cmax brain [3]: ~0.11 uM μM
Cc1cc(C2(c3ccc(OC(F)F)c(C)c3)N=C(N)N(C)C2=O)ccn1 (stereo not drawn) [FAH-47] | ↑>50% | ↑>10% | ↓≈10% | ↓>20% |  | sAPPα/Aβ ([1]; ↓ (decrease)): ↓>20%
Cc1cc(C2(c3cccc(-c4cncc(F)c4)c3)N=C(N)N(C)C2=O)ccc1OC(F)F (stereo not drawn) [FAH-66] |  |  |  |  |  | IC50 [4, 6]: 0.12 µM
Cc1cc(C2(c3cccc(F)c3)N=C(N)N(C)C2=O)ccc1OC(F)F (stereo not drawn) [FAH-17] | ↑>100% | ↑>20% | ↓>30% | ↓>30% | ↑>100% | Sol [2]: Med; Cmax brain [3]: ~0.3 µM
Cc1cc(C2(c3cccc(C4CNC4)c3)N=C(N)N(C)C2=O)ccc1OC(F)CF (stereo not drawn) [FAH-64] |  |  |  |  |  | IC50 [4, 6]: 3.2 µM
Cc1cc(C2(c3cccc(F)c3)N=C(N)N(Cc3ccccc3)C2=O)ccc1OC(F)F (stereo not drawn) [FAH-42] | ↑>50% | ↑>10% | ↓≈10% | ↓>30% | unchanged | 
Cc1cccc(C2(c3ccc(OC(F)F)c(C)c3)N=C(N)N(C)C2=O)c1 (stereo not drawn) [FAH-27] | ↑>100% | ↑>30% | ↓>40% | ↓>30% | ↑>100% | 
CNCc1cccc(C2(c3ccc(OC(F)F)c(C)c3)N=C(N)N(C)C2=O)c1 (stereo not drawn) [FAH-62] | ↑≈50% | ↑>10% | ↓<10% | ↓>20% |  | sAPPα/Aβ ([1]; ↓ (decrease)): ↓≈30%; Sol [2]: Good
Cc1cc(C2(c3cc(F)cc(Cl)c3)N=C(N)N(C)C2=O)ccc1OC(F)F (stereo not drawn) [FAH-25] | ↑≈50% | ↑>10% | ↓>20% | ↓>20% | ↑>40% | 
Cc1cc(C2(c3cccc(-c4cncnc4)c3)N=C(N)N(C)C2=O)ccc1OC(F)F (racemic) [FAH-65] |  |  |  |  |  | Aβ1-42 peptide formation, in words [1]: strongly reduces Aβ1-42 production; preference towards APP in BACE inhibition, in words ([1]; from Aβ1-42, sAPPβ and sAPPα formation): clear preference towards APP in BACE inhibition; brain levels / crossing the blood brain barrier, in words ([3]; FIG. 4, FIG. 5C (oral and SQ, 10 and 30 mg/kg)): pharmaceutically meaningful concentrations can be achieved in the brain
Cc1cc(F)cc(C2(c3ccc(OC(F)F)c(C)c3)N=C(N)N(C)C2=O)c1 (stereo not drawn) [FAH-22] | ↑≈50% | ↑>10% | ↓>25% | ↓>20% | ↑>100% | IC50 [4, 6]: 0.71 µM
CCCC1CC(C2(C3=CC(C)=C(OC(F)F)C(C)C3)N=C(N)N(C)C2=O)CCN1C (stereo not drawn) [FAH-68] |  |  |  |  |  | IC50 [4, 6]: 16.1 µM
Cc1cc(C2(c3cccc(Cl)c3)N=C(N)N(C)C2=O)ccc1OC(F)F (stereo not drawn) [FAH-23] | ↑>50% | ↑>20% | ↓>25% | ↓>20% | ↑>100% | 
Cc1cc(C2(C3CCN(C)CC3)N=C(N)N(C)C2=O)ccc1OC(F)CF (stereo not drawn) [FAH-67] |  |  |  |  |  | IC50 [4, 6]: 24.2 µM
